Experiment: Storage of aqueous solution or slurry for 60 days: HPLC analysis of components and appearance
Format: physicochemical
Conditions: keeping temperature 60° C.

Compound	Appearance after kept for 60 days	Content of the compound of the formula [I] in aqueous solution after kept for 60 days
O=C([O-])CN[C@@H](CC(=O)[O-])C(=O)[O-].[Na+].[Na+].[Na+] [compound 35, trisodium salt of (S)-aspartic acid-N-monoacetic acid, reference compound]	Brown slurry	47.3 wt. %

Same assay, conditions: keeping temperature 65° C.

Compound	Appearance after kept for 60 days	Content of the compound of the formula [I] in aqueous solution after kept for 60 days
O=C([O-])CN(CCS(=O)(=O)[O-])CC(=O)[O-].[Na+].[Na+].[Na+] [Example 106, trisodium salt of taurine-N,N-diacetic acid]	Light yellow slurry	63.7 wt. %

Same assay, conditions: keeping temperature 70° C.

Compound	Appearance after kept for 60 days	Content of the compound of the formula [I] in aqueous solution after kept for 60 days
O=C([O-])C[C@H](NCC(O)CN[C@@H](CC(=O)[O-])C(=O)[O-])C(=O)[O-].[Na+].[Na+].[Na+].[Na+] [Example 121, tetrasodium (S,S)-2-hydroxy-1,3-propanediamine-N,N′-disuccinate]	White slurry	78.7 wt. %

Same assay, conditions: keeping temperature 75° C.

Compound	Appearance after kept for 60 days	Content of the compound of the formula [I] in aqueous solution after kept for 60 days
O=C([O-])C[C@H](NCCCN[C@@H](CC(=O)[O-])C(=O)[O-])C(=O)[O-].[Na+].[Na+].[Na+].[Na+] [compound 46, tetrasodium (S,S)-1,3-propanediamine-N,N′-disuccinate, reference compound]	Colorless transparent aqueous solution	40.7 wt. %

Experiment: Compression strength (hardening property) of powder stored under load for 2 months
Format: physicochemical
Conditions: Load 100 (table head [Kg]; text 100 g/cm^2); 20-30° C., relative humidity 40-70%
Protocol: Method for the Measurement of Compression Strength
(1) A test sample (500 g) is put in a poly-ethylene bag of 20 cm×20 cm in a room at a temperature of 20-30° C. and a relative humidity of 40-70%. The powder is levelled to an area of 20 cm×20 cm and air is forced out of the bag, and, then, the bag is sealed. This bag is further put in a kraft bag and this kraft bag is sealed.
(2) The kraft bag of (1) is placed horizontally on a flat plate and a plate is put thereon. […]
(3) With keeping the temperature of 20-30° C. and the relative humidity of 40-70%, the test sample is taken out after lapse of 2 months from the starting of application of load. Several test pieces (4 cm long×4 cm broad×2 cm high) are cut out from the sample.

Compound	Compression strength after stored for 2 months
O=C(O)CN(CCS(=O)(=O)O)CC(=O)O [compound 12, taurine-N,N-diacetic acid, reference compound]	3.3 Kg/cm^2
O=C([O-])CC(NCCCNC(CC(=O)[O-])C(=O)[O-])C(=O)[O-].[Na+].[Na+].[Na+].[Na+] (stereo not drawn) [compound 18, tetrasodium 1,3-propanediaminedisuccinate, reference compound]	3.0 Kg/cm^2
O=C([O-])CN(CCS(=O)(=O)[O-])CC(=O)[O-].[Na+].[Na+].[Na+] [Example 28, trisodium salt of taurine-N,N-diacetic acid]	1.3 Kg/cm^2
C[C@@H](C(=O)O)N(CC(=O)O)CC(=O)O [Example 20, (S)-α-alanine-N,N-diacetic acid]	1.0 Kg/cm^2
O=C([O-])C[C@H](NCCN[C@@H](CC(=O)[O-])C(=O)[O-])C(=O)[O-].[Fe+3].[NH4+] [compound 26, iron ammonium (S,S)-ethylenediaminedisuccinate, reference compound]	2.7 Kg/cm^2
O=C(O)CN(CCS(=O)(=O)O)CC(=O)O [Example 37, taurine-N,N-diacetic acid]	1.0 Kg/cm^2
C[C@@H](C(=O)[O-])N(CC(=O)[O-])CC(=O)[O-].[Na+].[Na+].[Na+] [compound 4, trisodium salt of (S)-α-alanine-N,N-diacetic acid, reference compound]	2.8 Kg/cm^2
O=C([O-])C[C@H](NCCN[C@@H](CC(=O)[O-])C(=O)[O-])C(=O)[O-].[Na+].[Na+].[Na+].[Na+] [compound 17, tetrasodium (S,S)-ethylenediaminedisuccinate, reference compound]	2.9 Kg/cm^2
O=C(O)C[C@H](NCCN[C@@H](CC(=O)O)C(=O)O)C(=O)O [compound 22, (S,S)-ethylenediaminedisuccinic acid, reference compound]	2.5 Kg/cm^2
O=C([O-])CN[C@@H](CC(=O)[O-])C(=O)[O-].[Na+].[Na+].[Na+] [compound 1, trisodium salt of (S)-aspartic acid-N-monoacetic acid, reference compound]	2.6 Kg/cm^2
O=C(O)CCN[C@@H](CC(=O)O)C(=O)O [compound 6, (S)-aspartic acid-N-monopropionic acid, reference compound]	2.5 Kg/cm^2
O=C([O-])C[C@H](NCCN[C@@H](CC(=O)[O-])C(=O)[O-])C(=O)[O-].[Na+].[Na+].[Ni+2] [compound 28, nickel disodium (S,S)-ethylenediaminedisuccinate, reference compound]	2.5 Kg/cm^2
CN(CC(=O)O)CC(=O)O [compound 13, N-methyliminodiacetic acid, reference compound]	2.7 Kg/cm^2
CN(CC(=O)O)CC(=O)O [Example 38, N-methyliminodiacetic acid]	1.1 Kg/cm^2
O=C(O)C[C@H](NCCN[C@@H](CC(=O)O)C(=O)O)C(=O)O [Example 66, ethylenediaminedisuccinic acid]	0.8 Kg/cm^2

Same assay, conditions: Load 200 (table head [Kg]; text 200 g/cm^2); 20-30° C., relative humidity 40-70%

Compound	Compression strength after stored for 2 months
O=C(O)CN[C@@H](CC(=O)O)C(=O)O [Example 13, (S)-aspartic acid-N-monoacetic acid]	1.1 Kg/cm^2
O=C([O-])CC(NCCNC(CC(=O)[O-])C(=O)[O-])C(=O)[O-].[Cu+2].[Na+].[Na+] (stereo not drawn) [Example 77, copper disodium ethylenediaminedisuccinate]	1.2 Kg/cm^2
O=C([O-])C[C@H](NCCN[C@@H](CC(=O)[O-])C(=O)[O-])C(=O)[O-].[Na+].[Na+].[Na+].[Na+] [Example 47, tetrasodium (S,S)-ethylenediaminedisuccinate]	1.2 Kg/cm^2
CN(CC(=O)O)CC(=O)O [Example 35, N-methyliminodiacetic acid]	0.8 Kg/cm^2
O=C(O)CC(NCCCNC(CC(=O)O)C(=O)O)C(=O)O (stereo not drawn) [Example 63, 1,3-propanediaminedisuccinic acid]	1.1 Kg/cm^2
O=C([O-])CC(NCCCNC(CC(=O)[O-])C(=O)[O-])C(=O)[O-].[Na+].[Na+].[Na+].[Na+] (stereo not drawn) [Example 48, tetrasodium 1,3-propanediaminedisuccinate]	1.0 Kg/cm^2
O=C([O-])C[C@H](NCCN[C@@H](CC(=O)[O-])C(=O)[O-])C(=O)[O-].[Na+].[Na+].[Ni+2] [Example 81, nickel disodium (S,S)-ethylenediaminedisuccinate]	1.2 Kg/cm^2
O=C([O-])C[C@H](NCCCN[C@@H](CC(=O)[O-])C(=O)[O-])C(=O)[O-].[Cu+2].[Na+].[Na+] [Example 83, copper disodium (S,S)-1,3-propanediaminedisuccinate]	1.3 Kg/cm^2
O=C([O-])C[C@H](NCCCN[C@@H](CC(=O)[O-])C(=O)[O-])C(=O)[O-].[Na+].[Na+].[Na+].[Na+] [Example 49, tetrasodium (S,S)-1,3-propanediaminedisuccinate]	1.3 Kg/cm^2
O=C(O)C[C@H](NCCN[C@@H](CC(=O)O)C(=O)O)C(=O)O [Example 62, (S,S)-ethylenediaminedisuccinic acid]	1.0 Kg/cm^2
O=C(O)CN(CC(=O)O)c1ccccc1C(=O)O [Example 36, anthranilic acid-N,N-diacetic acid]	0.9 Kg/cm^2

Same assay, conditions: Load 300 (table head [Kg]; text 300 g/cm^2); 20-30° C., relative humidity 40-70%

Compound	Compression strength after stored for 2 months
O=C([O-])C[C@@H](C(=O)[O-])N(CC(=O)[O-])CC(=O)[O-].[Na+].[Na+].[Na+].[Na+] [Example 11, tetrasodium salt of (S)-aspartic acid-N,N-diacetic acid]	0.8 Kg/cm^2
O=C(O)CN(CC(=O)O)c1ccccc1C(=O)O [Example 42, anthranilic acid-N,N-diacetic acid]	1.1 Kg/cm^2
O=C(O)C[C@H](NCCCN[C@@H](CC(=O)O)C(=O)O)C(=O)O [Example 74, (S,S)-1,3-propanediaminedisuccinic acid]	1.2 Kg/cm^2
O=C(O)C[C@H](NCCN[C@@H](CC(=O)O)C(=O)O)C(=O)O [Example 72, (S,S)-ethylenediaminedisuccinic acid]	1.3 Kg/cm^2
C[C@@H](C(=O)[O-])N(CC(=O)[O-])CC(=O)[O-].[Na+].[Na+].[Na+] [Example 12, trisodium salt of (S)-α-alanine-N,N-diacetic acid]	0.9 Kg/cm^2
O=C([O-])CC(NCCNC(CC(=O)[O-])C(=O)[O-])C(=O)[O-].[Na+].[Na+].[Na+].[Na+] (stereo not drawn) [Example 56, tetrasodium ethylenediaminedisuccinate]	0.8 Kg/cm^2
O=C([O-])C[C@H](NCCCN[C@@H](CC(=O)[O-])C(=O)[O-])C(=O)[O-].[Na+].[Na+].[Na+].[Na+] [Example 59, tetrasodium (S,S)-1,3-propanediaminedisuccinate]	1.1 Kg/cm^2
O=C(O)CN[C@@H](CC(=O)O)C(=O)O [Example 21, (S)-aspartic acid-N-monoacetic acid]	0.8 Kg/cm^2
iron salt of anthranilic acid-N,N-diacetic acid [Example 45]	0.8 Kg/cm^2
O=C(O)CC(NCCCNC(CC(=O)O)C(=O)O)C(=O)O (stereo not drawn) [Example 73, 1,3-propanediaminedisuccinic acid]	1.1 Kg/cm^2
O=C([O-])CCN[C@@H](CC(=O)[O-])C(=O)[O-].[Na+].[Na+].[Na+] [Example 10, trisodium salt of (S)-aspartic acid-N-monopropionic acid]	1.0 Kg/cm^2
